We go through ten compounds from patent US10226453B2, “3-(1H-indol-2-yl)-1H-pyrazolo[4,3-B]pyridines and therapeutic uses thereof” (Samumed, LLC, priority 2015, dated 2019).

Broadly, the EC50 is the concentration giving half of the maximal effect. A low value points to greater potency.

What all share (assay type): cell-based
Assay [1] deals with primary human fibroblasts derived from IPF patients (LL29 cells) treated with TGF-β1. The assay can be described thus: Inhibition of the fibrotic process: αSMA staining in TGF-β1 treated primary human fibroblasts from IPF patients (LL29 cells). To be noted: Fibroblast, 96 h, TGF-β1 20 ng/mL, 4 days, % αSMA positive cells. The source says:
Representative compounds were screened using primary human fibroblasts (derived from IPF patients) treated with TGF-β1 to determine their ability to inhibit the fibrotic process.
Primary human fibroblasts derived from IPF patients (LL29 cells) [^1Xiaoqiu Liu, et. al., “Fibrotic Lung Fibroblasts Show Blunted Inhibition by cAMP Due to Deficient cAMP Response Element-Binding Protein Phosphorylation”, Journal of Pharmacology and Experimental Therapeutics (2005), 315(2), 678-687; ^2Watts, K. L., et. al., “RhoA signaling modulates cyclin D1 expression in human lung fibroblasts; implications for idiopathic pulmonary fibrosis”, Respiratory Research (2006), 7(1), 88] were obtained from American Type Culture Collection (ATCC) and expanded in F12 medium supplemented with 15% Fetal Bovine Serum and Penicillin/Streptomycin.
Each compound was dissolved in DMSO as a 10 mM stock and used to prepare compound source plates. Serial dilution (1:2, 11-point dose-response curves from 10 μM to 1.87 nM) and compound transfer was performed using the ECHO 550 (Labcyte, Sunnyvale, Calif.) into 384-well clear bottom assay plates (Greiner Bio-One) with appropriate DMSO backfill for a final DMSO concentration of 0.1%. LL29 cells are plated at 1,500 cells/well in 80 μL/well F12 medium supplemented with 1% Fetal Bovine Serum. One hour after addition of the cells, TGF-β1 (Peprotech; 20 ng/mL) was added to the plates to induce fibrosis (ref. 1 and 2 above). Wells treated with TGF-β1 and containing DMSO were used as controls. Cells were incubated at 37° C. and 5% CO2 for 4 days. Following incubation for 4 days, SYTOX green nucleic acid stain (Life Technologies [Thermo Fisher Scientific]) was added to the wells at a final concentration of 1 μM and incubated at room temperature for 30 min. Cells were then fixed using 4% formaldehyde (Electron Microscopy Sciences), washed 3 times with PBS followed by blocking and permeabilization using 3% Bovine Serum Albumin (BSA; Sigma) and 0.3% Triton X-100 (Sigma) in PBS. Cells were then stained with antibody specific to α-smooth muscle actin (αSMA; Abcam) (ref. 1 and 2 above) in 3% Bovine Serum Albumin (BSA; Sigma) and 0.3% Triton X-100 (Sigma) in PBS, and incubated overnight at 4° C. Cells were then washed 3 times with PBS, followed by incubation with Alexa Flor-647 conjugated secondary antibody (Life Technologies [Thermo Fisher Scientific]) and DAPI at room temperature for 1 hour. Cells were then washed 3 times with PBS and plates were sealed for imaging. αSMA staining was imaged by excitation at 630 nm and emission at 665 nm and quantified using the Compartmental Analysis program on the CellInsight CX5 (Thermo Scientific). Dead or apoptotic cells were excluded from analysis based on positive SYTOX green staining. % of total cells positive for αSMA were counted in each well and normalized to the average of 11 wells treated with TGF-β1 on the same plate using Dotmatics' Studies Software. The normalized averages (fold change over untreated) of 3 replicate wells for each compound concentration were used to create dose-responses curves and EC50 values were calculated using non-linear regression curve fit in the Dotmatics' Studies Software. For EC50 of >10 μM, the percent inhibition at 10 μM is provided.

The test system of another assay is IL-6 (THP-1 cells). The assay can be described thus: IL-6 inhibition in LPS-stimulated THP-1 human monocyte cells (HTRF). The following applies: LPS 500 ng/mL, 22 hours, IL6 HTRF. The procedure:
Human monocyte cell line (THP-1 cells; Catalog # TIB-202, ATCC, Manassas, Va.) were cultured in Roswell Park Memorial Institute (RPMI) 1640 Medium (Catalog #21870-100, Buffalo, N.Y.) with 1% L-glutamine, 1% HEPES, 1% Sodium Pyruvate, 2% Sodium Bicarbonate supplemented with 100 units/mL penicillin, 50 μg/mL streptomycin, 2-mercaptoethanol (0.05 mM) [basal medium] and 10% fetal bovine serum (Catalog #16140089, Life Technologies, Carlsbad, Calif.) at 37° C. and 5% CO2.
THP-1 cells were cultured in basal media with 1% FBS for 24 hours before the start of the assay. Each compound was dissolved in DMSO as a 10 mM stock and used to prepare compound source plates. Serial dilution (1:3, 10-point dose-response curves starting from 10 μM) and compound transfer was performed using the ECHO 550 (Labcyte, Sunnyvale, Calif.) into 384-well white low volume assay plates (Greiner Bio-One) with appropriate DMSO backfill for a final DMSO concentration of 0.1%. THP-1 cells were plated at 5000 cells/well in the 384-well plates and incubated at 37° C. for 2 h. 500 ng/mL of LPS was added after 2 hours and cells were incubated for another 22 hours at 37° C. Plates were spun in a centrifuge for 1 minute at […] and a mixture of anti-IL6 XL665, and anti-IL6 Cryptate diluted in reconstitution buffer (Cisbio Inc.) was added to each well. Following incubation for 3 hrs at room temperature, Homogeneous Time-Resolved Fluorescence (HTRF) was measured using the Envision (Perkin Elmer) at 665 nm and […]. The ratio of fluorescence at 665 nm to 620 nm was used as a readout for IL6 quantification. All samples were processed in duplicate. Readings were normalized to DMSO treated cells and normalized activities were utilized for EC50 calculations using the dose-response log (inhibitor) vs. response-variable slope (four parameters) nonlinear regression feature available in GraphPad Prism 5.0 (or Dotmatics). For EC50 of >10 μM, the percent inhibition at 10 μM is provided.

Assay [2] concerns Wnt activity (Sp5-Luc reporter, SW480 colon carcinoma cells). In words: Wnt activity screening assay: Sp5-Luc reporter gene in SW480 colon carcinoma cells. To be noted: Homo sapiens, overnight incubation, 10-point curve from 10 μM. The source says: The screening assay for Wnt activity is described as follows. Reporter cell lines can be generated by stably transducing cancer cell lines (e.g., colon cancer) or primary cells (e.g., IEC-6 intestinal cells) with a lentiviral construct that includes a Wnt-responsive promoter driving expression of the firefly luciferase gene.
SW480 colon carcinoma cells were transduced with a lentiviral vector expressing luciferase with a human Sp5 promoter consisting of a sequence of eight TCF/LEF binding sites. SW480 cells stably expressing the Sp5-Luc reporter gene and a hygromycin resistance gene were selected by treatment with 150 μg/mL of hygromycin for 7 days. These stably transduced SW480 cells were expanded in cell culture and used for all further screening activities. Each compound was dissolved in DMSO as a 10 mM stock and used to prepare compound source plates. Serial dilution (1:3, 10-point dose-response curves starting from 10 μM) and compound transfer was performed using the ECHO 550 (Labcyte, Sunnyvale, Calif.) into 384-well white solid bottom assay plates (Greiner Bio-One) with appropriate DMSO backfill for a final DMSO concentration of 0.1%. For Sp5-Luc reporter gene assays, the cells were plated at 4,000 cells/well in 384-well plates with medium containing 1% fetal bovine serum and incubated overnight at 37° C. and 5% CO2. Following incubation, 20 μl of BrightGlo luminescence reagent (Promega) was added to each well of the 384-well assay plates. The plates were placed on an orbital shaker for 2 min and then luminescence was quantified using the Envision (Perkin Elmer) plate reader. Readings were normalized to DMSO only treated cells, and normalized activities were utilized for EC50 calculations using the dose-response log (inhibitor) vs. response-variable slope (four parameters) nonlinear regression feature available in GraphPad Prism 5.0 (or Dotmatics). For EC50 of >10 μM, the percent inhibition at 10 μM is provided.
(In a reporter assay the amount or activity of a reporter protein is the signal.)

The test system of a further assay is SW480 colon cancer cells. The assay can be described thus: Cell viability assay (CellTiter-Blue), SW480 colon cancer cells. The following applies: Homo sapiens, 96 h, four days, CellTiter-Blue. As to the method:
Representative compounds were screened using the following assay procedure to assess the effect on cell viability as described below.
Each compound was dissolved in DMSO as a 10 mM stock and used to prepare compound source plates. Serial dilution (1:3, 8-point dose-response curves from 10 μM to 0.0045 μM) and compound transfer was performed using the ECHO 550 (Labcyte, Sunnyvale, Calif.) into 96-well clear bottom, black-walled plates (Corning—Costar).
Approximately 2×10^3 SW480 colon cancer cells were seeded into each well and allowed to incubate in the presence or absence of compound for four days at 37° C./5% CO2. Eight replicates of DMSO-treated cells served as controls and cells treated with compound were performed in duplicate.
After incubation, 20 μL of CellTiter-Blue (Promega) was added to each well allowed to incubate for approximately 3 hours. This reagent was a buffered solution which contains resazurin, metabolically active cells were able to reduce rezarurin (blue) into resorufin (pink) which was highly fluorescent. This measured fluorescence was used as a readout for cell viability.
After incubation, the plates were read at Ex 560 nm Em 590 nm (Cytation 3, BioTek). Dose-response curves were generated and EC50 concentration values were calculated using non-linear regression curve fit in the GraphPad Prism (San Diego, Calif.) or Dotmatics' Studies Software (Bishops Stortford, UK). For EC50 of >10 μM, the percent inhibition at 10 μM is provided.

For `Fc1cccc(-c2cccc3[nH]c(-c4n[nH]c5ccc(-c6cccnc6)nc45)cc23)c1` [Compound 4, 3-(4-(3-Fluorophenyl)-1H-indol-2-yl)-5-(pyridin-3-yl)-1H-pyrazolo[4,3-b] pyridine], the half-maximal effective concentration (EC50) in assay [1] turned out to be 974 nM; in the assay with IL-6 (THP-1 cells) it was 439 nM; in assay [2] it was 209 nM; in the assay with SW480 colon cancer cells it was 9.66 µM.

For `O=C(Nc1cncc(-c2ccc3[nH]nc(-c4cc5c(-c6cccc(F)c6)cccc5[nH]4)c3n2)c1)C1CCCCC1` [Compound 23, N-(5-(3-(4-(3-Fluorophenyl)-1H-indol-2-yl)-1H-pyrazolo[4,3-b]pyridin-5-yl)pyridin-3-yl)cyclohexanecarboxamide], the EC50 in assay [1] worked out at 1280 nM; with IL-6 (THP-1 cells) it was 1010 nM; in assay [2] it was 1630 nM; in the assay on SW480 colon cancer cells, 6.57 µM.

As to `Fc1cccc(-c2cccc3[nH]c(-c4n[nH]c5ccc(-c6cncc(CN7CCC(F)(F)C7)c6)nc45)cc23)c1` [Compound 26, 5-(5-((3,3-Difluoropyrrolidin-1-yl)methyl)pyridin-3-yl)-3-(4-(3-fluorophenyl)-1H-indol-2-yl)-1H-pyrazolo[4,3-b]pyridine], the EC50 in assay [1] is 409 nM; in the assay on IL-6 (THP-1 cells), 530 nM; in assay [2] it was 981 nM; in the assay with SW480 colon cancer cells, 3.11 µM.

For `Cc1ccncc1-c1ccc2[nH]nc(-c3cc4c(-c5ccc(F)cc5)cccc4[nH]3)c2n1` [Compound 33, 3-(4-(4-Fluorophenyl)-1H-indol-2-yl)-5-(4-methylpyridin-3-yl)-1H-pyrazolo [4,3-b]pyridine], the EC50 in assay [1] amounted to 1230 nM; in the assay with IL-6 (THP-1 cells) it was 388 nM; in assay [2], 1020 nM; in the assay on SW480 colon cancer cells, 6.74 µM.

As for `CC(C)CC(=O)Nc1cncc(-c2ccc3[nH]nc(-c4cc5c(-c6ccccc6F)cccc5[nH]4)c3n2)c1` [Compound 58, N-(5-(3-(4-(2-Fluorophenyl)-1H-indol-2-yl)-1H-pyrazolo[4,3-b]pyridin-5-yl)pyridin-3-yl)-3-methylbutanamide], the concentration for a half-maximal effect (EC50) in assay [1] was 628 nM; in the assay with IL-6 (THP-1 cells), 72 nM; in assay [2], 254 nM; in the assay with SW480 colon cancer cells it was 1.21 µM.

On to `O=C(Nc1cncc(-c2ccc3[nH]nc(-c4cc5c(-c6ccccc6F)cccc5[nH]4)c3n2)c1)C1CC1` [Compound 76, N-(5-(3-(4-(2-Fluorophenyl)-1H-indol-2-yl)-1H-pyrazolo[4,3-b]pyridin-5-yl)pyridin-3-yl)cyclopropanecarboxamide], for which the EC50 in assay [1] is 502 nM; with IL-6 (THP-1 cells), 51 nM; in assay [2], 164 nM; with SW480 colon cancer cells, 0.895 µM.

Consider `CC(C)Nc1cncc(-c2ccc3[nH]nc(-c4cc5c(-c6cccnc6)cccc5[nH]4)c3n2)c1` [Compound 96, N-Isopropyl-5-(3-(4-(pyridin-3-yl)-1H-indol-2-yl)-1H-pyrazolo[4,3-b]pyridin-5-yl)pyridin-3-amine], for which the EC50 turned out to be 214 nM in assay [1], 75 nM with IL-6 (THP-1 cells), 107 nM in assay [2] and 0.604 µM with SW480 colon cancer cells.

Regarding `c1cncc(-c2ccc3[nH]nc(-c4cc5c(N6CCCCC6)cccc5[nH]4)c3n2)c1` [Compound 172, 3-(4-(Piperidin-1-yl)-1H-indol-2-yl)-5-(pyridin-3-yl)-1H-pyrazolo[4,3-b] pyridine], the EC50 in assay [1] amounted to 295 nM; in the assay with IL-6 (THP-1 cells) it was 126 nM; in assay [2] it was 253 nM; in the assay on SW480 colon cancer cells, 2.15 µM.

On to `CN(C)Cc1cncc(-c2ccc3[nH]nc(-c4cc5c(N6CCCCC6)cccc5[nH]4)c3n2)c1` [Compound 181, N,N-Dimethyl-1-(5-(3-(4-(piperidin-1-yl)-1H-indol-2-yl)-1H-pyrazolo[4,3-b]pyridin-5-yl)pyridin-3-yl)methanamine], for which the EC50 in assay [1] was found to be 870 nM; in the assay on IL-6 (THP-1 cells), 1520 nM; in assay [2], 899 nM; in the assay with SW480 colon cancer cells, 3.15 µM.

Consider `c1cc(N2CCCCC2)c2cc(-c3n[nH]c4ccc(-c5cncnc5)nc34)[nH]c2c1` [Compound 195, 3-(4-(Piperidin-1-yl)-1H-indol-2-yl)-5-(pyrimidin-5-yl)-1H-pyrazolo[4,3-b] pyridine], for which the EC50 in assay [1] was found to be 1280 nM; with IL-6 (THP-1 cells) it was 31 nM; in assay [2] it was 1180 nM; in the assay on SW480 colon cancer cells, 5.59 µM.
